Results: patent EP1914304A1 (priority 1998, dated 1999)

Key:
[1] = tested on: rat C6 glioblastoma cells transfected with TK mutant SR39, subcutaneous tumor; assay: Mouse xenograft tumor model with prodrug treatment; format: in vivo, Nude mice; details: prodrug twice a day for 5 days from day 5; Figures 32-34
Experimental: (§1) Rat C6 glioblastoma cells were transfected with the stable expression vector pREP8D7:dualGFP as described above containing various TK mutants. […] Experiments were carried out to establish prodrug dosing levels for tumor ablation and efficacy of therapy. Nude mice (JAX Labs, Bar Harbor, Maine) were injected subcutaneously with 0.5 x10^6 transfected rat C6 cells. After 5 days, prodrugs (ACV and GCV) were administered twice a day for a further 5 days. Prodrug was given at either of two concentrations (shown as mg/kg). During this period and for an additional 6 days, tumor size was monitored by caliper measurement every other day. At the end of the period, mice were sacrificed and the tumors excised and weighed.

[2] = tested on: rat C6 glioblastoma cells transfected with TK mutant 30, subcutaneous tumor; assay: Mouse xenograft tumor model with prodrug treatment; format: in vivo, Nude mice; details: prodrug twice a day for 5 days from day 5; Figures 32-34
Experimental: as §1

[3] = tested on: ts13 BHK tk- cells transfected with pCMV:HSVTK (wild-type HSV-1 TK); assay: Cell killing by GCV and ACV, Alamar Blue viability (ED50); format: cell-based, baby hamster; details: Mesocricetus auratus, 96 h; effective dose for 50% cell killing, after 4 days on nucleoside analog, pooled G418 resistant clones
Experimental: (§2) Briefly, the cell transfections are performed as follows. Approximately 5 x 10^5 ts13 BHK tk cells (ATCC CRL-1632) are plated on 100mm dishes in DMEM + 10% calf serum. For each transfection 1 µg of pSV2neo and 10µg of a pCMV construct (pCMV, pCMV:TK-wrong (HSVTK in the wrong orientation relative to the promoter), pCMV:HSVTK, pCMV:30, pCMV:75 or pCMV:132 DNA) in 0.25M CaCl2 are mixed with 0.5ml 2 x BBS (see Chen and Okayama) and preincubated at 37°C at 2.5% CO2 for […]. The CaCl2/DNA mix is added dropwise to the plates and mixed in well. After a 24 hour incubation at 37°C in a 2.5% CO2 wet incubator, the cells are rinsed twice with Dulbecco PBS minus Ca/Mg and fed with fresh DMEM + 10% calf serum. Plates are incubated at 37°C with 6% CO2. After 72 hours post-transfection the cells are split 1:3 and plated in DMEM + 10% calf serum containing G418 at 600µg/ml.
(§3) The cells are selected on G418 (600µg/ml) at 37°C for 17 days. […]. Approximately 30-40 clones are selected in this manner for each transfected DNA containing a tk gene in the correct orientation. The pCMV and pCMV:TK-wrong transfections yielded between 130 and 140 clones each. G418 resistant clones are harvested, pooled and plated at a density of 2000 cells/well in 100µl DMEM + 10% calf serum and 200µg/ml G418 + 6% CO2 in 96 well microtiter plates. […]. After three days in the presence of the nucleoside analog, Alamar Blue is added and 6 hours later the plates are scanned using a fluorometer as according to the manufacturer's protocol (Alamar Biosciences, Inc., Sacramento, CA). The plates are incubated a further 24 hours at 37°C and scanned again.
(§4) Determination of the fluorescence level of cells incubated in the presence of Alamar Blue directly relates to cell viability.

[4] = tested on: ts13 BHK tk- cells transfected with pCMV:30 (HSV-1 TK mutant 30); assay: as above; format: cell-based, baby hamster; details: Mesocricetus auratus, 96 h; effective dose for 50% cell killing, after 4 days on nucleoside analog, pooled G418 resistant clones
Experimental: as §2, §3, §4

[5] = tested on: ts13 BHK tk- cells transfected with pCMV:132 (HSV-1 TK mutant 132); assay: as above; format: cell-based, baby hamster; details: Mesocricetus auratus, 96 h; effective dose for 50% cell killing, after 4 days on nucleoside analog, pooled G418 resistant clones
Experimental: as §2, §3, §4

[6] = tested on: ts13 BHK tk- cells transfected with pCMV:75 (HSV-1 TK mutant 75); assay: as above; format: cell-based, baby hamster; details: Mesocricetus auratus, 96 h; effective dose for 50% cell killing, after 4 days on nucleoside analog, pooled G418 resistant clones
Experimental: as §2, §3, §4

Nc1nc2c(ncn2COCCO)c(=O)[nH]1 [acyclovir]
tumor reduction (tumor diameter, final tumor weight) [1]: significant tumor reduction | tumor reduction (tumor diameter, final tumor weight) [2]: significant tumor reduction | IC50 [3]: 25 µM | IC50 [4]: 18 µM | IC50 [5]: 25 µM | IC50 [6]: 1.25 µM
